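Test compounds were applied to cells in 96-well plates for 48 hours at 5 doses. GI50 = concentration required for 50% inhibition of growth. TGI: total growth inhibition.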
What was measured:
Test in all cases: NCI anticancer screen, dose series, 48 h
UO-31 renal = tested on: UO-31 renal
LOX IMVI melanoma = tested on: LOX IMVI melanoma
RXF 393 renal = tested on: RXF 393 renal
OVCAR-8 ovarian = tested on: OVCAR-8 ovarian
HOP-62 NSCLC = tested on: HOP-62 NSCLC
MALME-3M melanoma = tested on: MALME-3M melanoma
HOP-92 NSCLC = tested on: HOP-92 NSCLC
CAKI-1 renal = tested on: CAKI-1 renal

Row | SMILES | GI50 (UO-31 renal) | TGI (UO-31 renal) | GI50 (LOX IMVI melanoma) | TGI (LOX IMVI melanoma) | GI50 (RXF 393 renal) | TGI (RXF 393 renal) | GI50 (OVCAR-8 ovarian) | TGI (OVCAR-8 ovarian) | GI50 (HOP-62 NSCLC) | TGI (HOP-62 NSCLC) | TGI (MALME-3M melanoma) | TGI (HOP-92 NSCLC) | TGI (CAKI-1 renal) | GI50 (MALME-3M melanoma) | GI50 (HOP-92 NSCLC) | GI50 (CAKI-1 renal)
1 | O=C1c2nsnc2C(=O)c2c(F)c(F)c(F)c(F)c21 | 0.702 µM | 2 µM | 0.494 µM | 1.83 µM | 0.339 µM | 1.09 µM | 2.8 µM | 72.7 µM | 0.913 µM | 2.24 µM | – | – | – | – | – | –
2 | CNC(=O)OCc1c2ccncc2c(C)c2c1[nH]c1ccccc12 | – | 0.966 µM | – | 0.584 µM | – | 0.17 µM | – | 2.16 µM | – | 5 µM | 1.24 µM | 16.5 µM | 1.25 µM | – | – | –
3 | COC1CCN(C(=O)c2cc(Cc3n[nH]c(=O)c4ccccc34)ccc2F)CC1 | 84.5 µM | > 100 µM | 58.5 µM | > 100 µM | 0.926 µM | 45.2 µM | > 73.2 µM | > 100 µM | 33.4 µM | > 100 µM | > 100 µM | > 100 µM | > 100 µM | > 100 µM | 41.5 µM | 32.3 µM
4 | COC(=O)[C@]12CC[C@@H](C)[C@H](C)[C@@H]1C1=CC[C@@H]3[C@@]4(C)C(C=O)=C[C@@](C)(COC(C)=O)C4=CC[C@@]3(C)[C@]1(C)CC2 | 3.61 µM | 16 µM | 3.3 µM | 12.7 µM | 3.55 µM | 14.1 µM | 4.46 µM | 18.9 µM | 11.7 µM | 29.3 µM | 15.5 µM | 16.3 µM | 17 µM | 3.74 µM | 2.63 µM | 3.66 µM
5 | N#Cc1ccccc1NC(=O)C(=O)c1c(O)c2ccccc2oc1=O | – | > 100 µM | – | > 100 µM | – | > 100 µM | – | > 100 µM | – | > 100 µM | > 100 µM | > 100 µM | > 100 µM | – | – | –
6 | CN(C)CCNC(=O)C(C)(C)Oc1ccc(C(=O)c2ccc(Cl)cc2)cc1Cl | – | 22.8 µM | 0.0392 µM | 20.1 µM | 9.94 µM | 21.7 µM | – | 24.5 µM | – | 23.9 µM | 11.1 µM | 18.1 µM | 26.2 µM | 3.9 µM | – | –
7 | O=[N+]([O-])c1ccc(Sc2ncnc3nc[nH]c23)c2nonc12 | 1.6 µM | 2.95 µM | 1.04 µM | 16 µM | – | – | 7.23 µM | 28.9 µM | 4.97 µM | 20.7 µM | > 100 µM | 22.2 µM | 33.7 µM | 13.1 µM | 2 µM | 5.97 µM
8 | N/N=C(\C(=O)Nc1ccc(Cl)cc1Cl)C(c1cnc2ccccc2n1)[N+](=O)[O-] (stereo not given) | – | > 100 µM | – | > 100 µM | – | > 100 µM | – | > 100 µM | – | > 100 µM | > 100 µM | > 100 µM | > 100 µM | – | – | –
9 | Oc1ccc(O)c(-c2cn3ccsc3n2)c1 | 12.6 µM | 25.2 µM | 5.68 µM | 21.3 µM | 14.5 µM | 29.6 µM | 19.6 µM | 67.1 µM | – | – | – | – | 4.99 µM | – | – | 2.18 µM
10 | CCOC(=O)c1c(C)n2c(=O)cc(C)c3c(O)c(O)cc1c32 | 5.7 µM | > 100 µM | 3.98 µM | 30.5 µM | – | – | 2.7 µM | 9.32 µM | 38.4 µM | > 100 µM | – | 31.6 µM | > 100 µM | – | 2.49 µM | 2.2 µM
11 | C[C@H](Nc1ncnc2nc[nH]c12)c1cc2ccc(F)cc2nc1-c1ccccn1 | 9.3 µM | > 100 µM | > 86.2 µM | > 100 µM | 4.26 µM | 59.2 µM | > 100 µM | > 100 µM | > 57.8 µM | > 100 µM | > 100 µM | > 100 µM | > 100 µM | > 87.8 µM | 3.43 µM | 33.7 µM
12 | COc1ccc(C(=O)COC(=O)[C@H](C[Se][Se]C[C@H](NC(=O)c2ccc(Br)cc2F)C(=O)OCC(=O)c2ccc(OC)cc2)NC(=O)c2ccc(Br)cc2F)cc1 | 0.579 µM | 1.68 µM | 0.914 µM | 2.32 µM | 1.56 µM | 3.19 µM | 0.513 µM | 1.86 µM | 0.415 µM | 1.83 µM | 4.4 µM | 5.87 µM | 2.97 µM | 2.04 µM | 2.04 µM | 1 µM
13 | Cn1cc(C2=C(c3cn(C)c4c([N+](=O)[O-])cccc34)C(=O)NC2=O)c2ccccc21 | > 25 µM | > 25 µM | > 25 µM | > 25 µM | > 25 µM | > 25 µM | > 25 µM | > 25 µM | > 25 µM | > 25 µM | > 25 µM | > 25 µM | > 25 µM | > 25 µM | > 25 µM | > 25 µM
14 | Cl.Fc1c[c-]c(-c2ccccn2)c(F)c1.[Pt].c1ccc(P(c2ccccc2)C([PH+](c2ccccc2)c2ccccc2)[PH+](c2ccccc2)c2ccccc2)cc1 | 2.27 µM | 7.65 µM | 3.35 µM | 13.5 µM | 3.09 µM | 15.1 µM | 2.83 µM | 38.5 µM | 2.63 µM | 9.78 µM | 7.3 µM | 5.62 µM | 7.41 µM | 2.5 µM | 1.7 µM | 2.19 µM
15 | COc1ccc2c(c1)[nH]c(=O)c1c3cc(OC)ccc3cn21 | 0.028 µM | 1.9 µM | 0.0269 µM | 1.68 µM | < 0.01 µM | 0.274 µM | 0.0343 µM | 1.57 µM | 0.179 µM | 2.05 µM | 1.88 µM | 2.09 µM | < 0.01 µM | 0.139 µM | 0.21 µM | < 0.01 µM
16 | Clc1ccc2c(c1)N(CCCN1CCCC1)c1ccccc1S2 | 6.61 µM | 20.7 µM | 2.5 µM | 7.14 µM | 3.47 µM | 12.1 µM | 9.64 µM | 23.4 µM | 12.6 µM | 26.6 µM | 18.5 µM | 16.2 µM | 22.9 µM | 3.98 µM | 3.94 µM | 11 µM
17 | CN(Cc1cc(Br)cc(Br)c1O)Cc1cc(Br)cc(Br)c1O | 1.08 µM | 14.6 µM | 1.14 µM | 17.4 µM | 2.65 µM | 15.3 µM | 1.94 µM | 16.1 µM | 1.74 µM | 18.1 µM | 22 µM | 8.87 µM | 12.5 µM | 3.51 µM | 1.42 µM | 0.612 µM

From PubChem BioAssay (NCI)
